Assay results as given in patent US11013745B2, “Triazolopyrimidine, triazolopyridine compounds, and the composition thereof for treating PRC2-mediated diseases” (SHANGHAI INSTITUTE OF MATERIA MEDICA, CHINESE ACADEMY OF …, priority 2017, dated 2021).
Read-outs that look alike come from different tables or passages of the source.

Key:
SU-DHL-4 cells = assay: Growth inhibition of SU-DHL-4 cells in a long term (11 days), CellTiter-Glo; format: cell-based, Human; settings: SU-DHL-4, 11 days, read-out: SU-DHL-4 (11 days) IC50
Pfeiffer cells [1] = assay: Pfeiffer cell growth inhibition in a long term (11 days), CellTiter-Glo; format: cell-based, Human; settings: 11 days, read-out: Experiment on Pfeiffer cell growth inhibition in a long term (11 days IC50)
Description: Pfeiffer cells in exponential growth phase were seeded in a 24-well plate with a cell density of 1*10E5 cells/mL. Cells were treated on the same day with the compounds at different concentrations. At day 4 and day 7 of compound treatment, fresh media and compounds were changed. After treated with the compounds for 11 days, cell viability was measured using CellTiter-Glo reagent (Promega Corporation). The data was analyzed using GraphPad Prism 5.0 software and GI50 values were obtained.

Pfeiffer cells [2] = assay: Growth inhibition of Pfeiffer cells in a long term (14 days), CellTiter-Glo; format: cell-based, Human; settings: 14 days, read-out: Pfeiffer (14 days) IC50
Description: In a CO2 cell incubator (37° C., 5% CO2), Human diffuse large B-cell lymphoma (DLBCL) cell line, pfeiffer (obtained from ATCC, CRL-2632) were incubated with RPMI 1640 medium (Gibco, purchased from Life Technologies, 22400-089) containing 10% fetal bovine serum (Gibco, purchased from Life Technologies, 10099-141) and 1% antibiotics (penicillin and streptomycin, purchased from Life Technologies, 10378016). […] After seeding the cells, they were placed in a CO2 incubator and allowed to stand for 1 hour. In a 24-well plate containing cells, 2 μL of three-fold gradient of the compounds at 9 different concentrations or DMSO were added to each well, such that the final concentration of the compounds was 0.003-20 μM or 0.3-2000 nM, and the final concentration of DMSO was 0.2%. At day 4, day 7, and day 11 of compound treatment, the fresh medium and compounds were changed, and the cell density of the DMSO control well was diluted to 2*10E5 cells/mL. The cell dilution ratio for other compound wells was the same as that of the DMSO control well. Cell viability was determined by using CellTiter-Glo reagent (purchased from Promega Inc., G7572): cells treated with the compounds for 14 days were transferred to a white 384-well plate (OptiPlate-384, purchased from PerkinElmer, 6007299) at 40 μL/well, an equal volume of CellTiter-Glo reagent was further added. After incubating at room temperature for 10 min, the cold luminescence signal was detected with a multifunctional microplate reader EnVision (PerkinElmer) at a wavelength of 400 to 700 nm. Data were analyzed using GraphPad Prism 5.0 software, and IC50 values were obtained.

Karpas-422 cells = assay: Growth inhibition of Karpas-422 cells in a long term (11 days), CellTiter-Glo; format: cell-based, Human; settings: Karpas-422, 11 days, read-out: Karpas-422 (11 days) IC50
PRC2 enzyme = PRC2 enzyme (Homo sapiens (Human), UniProt O75530); assay: PRC2 enzyme activity, TR-FRET method; format: biochemical
PRC2 enzyme, sequence (O75530 whole entry): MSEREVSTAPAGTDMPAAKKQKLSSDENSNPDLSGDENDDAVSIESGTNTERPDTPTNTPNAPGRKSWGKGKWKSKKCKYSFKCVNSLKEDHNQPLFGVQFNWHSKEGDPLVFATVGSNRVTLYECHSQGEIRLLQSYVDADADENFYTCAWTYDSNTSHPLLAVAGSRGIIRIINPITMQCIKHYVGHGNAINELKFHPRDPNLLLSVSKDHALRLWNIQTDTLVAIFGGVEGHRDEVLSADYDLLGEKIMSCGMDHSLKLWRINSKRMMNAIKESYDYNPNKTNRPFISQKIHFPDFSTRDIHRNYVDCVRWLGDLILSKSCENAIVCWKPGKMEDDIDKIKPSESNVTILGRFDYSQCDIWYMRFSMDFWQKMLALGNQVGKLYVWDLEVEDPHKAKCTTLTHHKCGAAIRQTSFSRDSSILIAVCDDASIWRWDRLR
PRC2 enzyme, sequence (Q15910 whole entry partner): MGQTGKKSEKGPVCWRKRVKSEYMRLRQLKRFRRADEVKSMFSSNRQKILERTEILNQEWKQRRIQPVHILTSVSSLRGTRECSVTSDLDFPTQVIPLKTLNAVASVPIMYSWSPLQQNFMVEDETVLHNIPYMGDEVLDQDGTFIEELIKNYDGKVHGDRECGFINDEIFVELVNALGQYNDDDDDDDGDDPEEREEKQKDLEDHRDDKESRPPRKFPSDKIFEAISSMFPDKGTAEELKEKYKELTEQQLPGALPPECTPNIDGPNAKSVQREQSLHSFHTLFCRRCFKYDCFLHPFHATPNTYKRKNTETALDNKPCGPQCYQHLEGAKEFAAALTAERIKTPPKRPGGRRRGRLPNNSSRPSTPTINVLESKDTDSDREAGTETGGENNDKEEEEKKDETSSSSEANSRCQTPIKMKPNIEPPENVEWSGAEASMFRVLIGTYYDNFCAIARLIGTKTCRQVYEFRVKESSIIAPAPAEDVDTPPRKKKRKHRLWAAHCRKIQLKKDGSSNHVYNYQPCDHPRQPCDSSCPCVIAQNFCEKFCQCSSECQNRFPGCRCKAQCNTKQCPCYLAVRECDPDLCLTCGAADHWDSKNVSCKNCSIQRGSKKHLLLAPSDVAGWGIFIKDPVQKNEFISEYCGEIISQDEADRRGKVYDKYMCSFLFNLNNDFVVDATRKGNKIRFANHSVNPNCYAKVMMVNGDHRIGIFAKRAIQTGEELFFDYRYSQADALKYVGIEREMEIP
PRC2 enzyme, sequence (Q15022 whole entry partner): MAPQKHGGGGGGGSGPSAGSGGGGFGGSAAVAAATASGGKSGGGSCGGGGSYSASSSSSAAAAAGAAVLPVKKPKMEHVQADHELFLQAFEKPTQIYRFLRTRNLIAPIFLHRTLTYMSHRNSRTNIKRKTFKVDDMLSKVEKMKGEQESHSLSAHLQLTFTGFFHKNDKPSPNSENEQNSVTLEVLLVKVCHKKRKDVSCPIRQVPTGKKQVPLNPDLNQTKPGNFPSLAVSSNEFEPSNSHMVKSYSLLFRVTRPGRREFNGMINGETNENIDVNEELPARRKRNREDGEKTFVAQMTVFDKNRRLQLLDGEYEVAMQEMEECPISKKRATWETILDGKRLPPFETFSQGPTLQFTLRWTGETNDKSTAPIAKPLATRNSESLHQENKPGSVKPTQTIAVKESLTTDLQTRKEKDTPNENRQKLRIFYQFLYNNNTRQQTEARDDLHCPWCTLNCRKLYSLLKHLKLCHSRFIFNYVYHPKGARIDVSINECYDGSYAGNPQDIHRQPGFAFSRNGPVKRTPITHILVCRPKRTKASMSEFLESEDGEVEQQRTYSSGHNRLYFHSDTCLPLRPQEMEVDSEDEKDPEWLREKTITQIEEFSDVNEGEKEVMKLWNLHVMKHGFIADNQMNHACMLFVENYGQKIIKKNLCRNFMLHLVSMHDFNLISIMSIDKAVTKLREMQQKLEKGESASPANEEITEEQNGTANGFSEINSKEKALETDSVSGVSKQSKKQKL
Description: The TR-FRET method was used to measure the PRC2 enzyme activity. First, the enzyme was mixed with compounds at different concentrations and incubated for 30 min at room temperature. The biotin-labeled histone H3 peptide substrate and the cofactor S-adenosylmethionine (SAM) were added to initiate the enzymatic reaction. After reaction was performed at room temperature for 4 hour, Acceptor and Donor were added and incubated for half an hour. The multifunctional microplate reader EnVision (Perkin Elmer Inc.) was used to detect the fluorescence signal. Data were analyzed using GraphPad Prism 5.0 software, and IC50 values were obtained.

SMILES	IC50 (SU-DHL-4 cells; Homo sapiens, 264 h) [nM]	IC50 (Pfeiffer cells [1]; Homo sapiens, 264 h) [nM]	IC50 (Pfeiffer cells [2]; Homo sapiens, 336 h) [nM]	IC50 (Karpas-422 cells; Homo sapiens, 264 h) [nM]	IC50 (PRC2 enzyme) [nM]	IC50 (SU-DHL-4 cells) [nM]	IC50 (Pfeiffer cells [1]) [nM]	IC50 (Pfeiffer cells [2]) [nM]	IC50 (Karpas-422 cells) [nM]
CC(C)S(=O)(=O)N1CC=C(c2cnc(NCc3c(F)ccc4c3CCO4)n3cnnc23)CC1 [SL-ZYE-145]	1	1.7	1	3.2	8.9	–	–	–	–
O=S(=O)(C1CC1)N1CC=C(c2cnc(NCc3c(F)ccc4c3CCO4)n3cnnc23)CC1 [SL-ZYE-146]	4	4.5	3	4	2.9	–	–	–	–
O=C(C1CC1)N1CC=C(c2cnc(NCc3c(F)ccc4c3CCO4)n3cnnc23)CC1 [SL-ZYE-162]	3.1	2.7	1.2	2.8	5.2	–	–	–	–
CC1CC(c2cnc(NCc3c(F)ccc4c3CCO4)n3cnnc23)=CCO1 (stereo not shown) [SL-ZYE-196]	9 to 50	7	4	19.9	14.1	–	–	–	–
CC1C=C(c2cnc(NCc3c(F)ccc4c3CCO4)n3cnnc23)CCO1 (stereo not shown) [SL-ZYE-197]	–	–	–	–	7.8	56	10	5	16
